Experimental data reported in ChEMBL document CHEMBL1681651, “A broad spectrum anticancer nucleoside with selective toxicity against human colon cells in vitro” (2011).

What was measured:
Type in all cases: functional
UO-31 [1] = test: Growth inhibition of human UO31 cells assessed as cell growth at 100 uM after 48 hrs by SRB assay; details: UO-31, 48 h, read-out: Activity
BT-549 = test: Growth inhibition of human BT549 cells assessed as cell growth at 100 uM after 48 hrs by SRB assay; details: BT-549, 48 h, read-out: Activity
NCI-H23 = test: Growth inhibition of human NCI-H23 cells assessed as cell growth at 10 uM after 48 hrs by SRB assay; details: NCI-H23, 48 h, read-out: Activity
IGROV-1 = test: Growth inhibition of human IGROV1 cells assessed as cell growth at 1 uM after 48 hrs by SRB assay; details: IGROV-1, 48 h, read-out: Activity
MDA-MB-435 [2] = test: Growth inhibition of human MDA-MB-435 cells assessed as cell growth at 10 uM after 48 hrs by SRB assay; details: MDA-MB-435, 48 h, read-out: Activity
A498 = test: Growth inhibition of human A498 cells assessed as cell growth at 0.1 uM after 48 hrs by SRB assay; details: A498, 48 h, read-out: Activity
SK-OV-3 [3] = test: Growth inhibition of human SKOV3 cells assessed as cell growth at 0.1 uM after 48 hrs by SRB assay; details: SK-OV-3, 48 h, read-out: Activity
OVCAR-8 = test: Growth inhibition of human OVCAR8 cells assessed as cell growth at 100 uM after 48 hrs by SRB assay; details: OVCAR-8, 48 h, read-out: Activity
SF-539 = test: Growth inhibition of human SF539 cells assessed as cell growth at 100 uM after 48 hrs by SRB assay; details: SF-539, 48 h, read-out: Activity
NCI-H322M [4] = test: Growth inhibition of human NCI-H322M cells assessed as cell growth at 1 uM after 48 hrs by SRB assay; details: read-out: Activity
SF-268 [5] = test: Growth inhibition of human SF268 cells after 48 hrs by […] growth inhibition assay; details: SF-268, 48 h
OVCAR-5 = test: Growth inhibition of human OVCAR5 cells assessed as cell growth at 1 mM after 48 hrs by SRB assay; details: OVCAR-5, 48 h, read-out: Activity
HCC 2998 = test: Growth inhibition of human HCC2998 cells after 48 hrs by […] growth inhibition assay; details: HCC 2998, 48 h
MDA-MB-435 [6] = test: Growth inhibition of human MDA-MB-435 cells assessed as cell growth at 0.1 uM after 48 hrs by SRB assay; details: MDA-MB-435, 48 h, read-out: Activity
OVCAR-4 = test: Growth inhibition of human OVCAR4 cells assessed as cell growth at 10 uM after 48 hrs by SRB assay; details: OVCAR-4, 48 h, read-out: Activity
UACC-62 [7] = test: Growth inhibition of human UACC62 cells after 48 hrs by […] growth inhibition assay; details: UACC-62, 48 h
UO-31 [8] = test: Growth inhibition of human UO31 cells assessed as cell growth at 10 uM after 48 hrs by SRB assay; details: UO-31, 48 h, read-out: Activity
SK-OV-3 [9] = test: Growth inhibition of human SKOV3 cells assessed as cell growth at 10 uM after 48 hrs by SRB assay; details: SK-OV-3, 48 h, read-out: Activity
SK-MEL-2 = test: Growth inhibition of human SK-MEL-2 cells assessed as cell growth at 10 uM after 48 hrs by SRB assay; details: SK-MEL-2, 48 h, read-out: Activity
UACC-257 = test: Growth inhibition of human UACC257 cells assessed as cell growth at 1 uM after 48 hrs by SRB assay; details: UACC-257, 48 h, read-out: Activity
HCT-15 [10] = test: Growth inhibition of human HCT15 cells assessed as cell growth at 100 uM after 48 hrs by SRB assay; details: HCT-15, 48 h, read-out: Activity
NCI-H226 = test: Growth inhibition of human NCI-H226 cells assessed as cell growth at 10 uM after 48 hrs by SRB assay; details: NCI-H226, 48 h, read-out: Activity
MDA-MB-435 [11] = test: Growth inhibition of human MDA-MB-435 cells assessed as cell growth at 100 uM after 48 hrs by SRB assay; details: MDA-MB-435, 48 h, read-out: Activity
UACC-62 [12] = test: Growth inhibition of human UACC62 cells assessed as cell growth at 100 uM after 48 hrs by SRB assay; details: UACC-62, 48 h, read-out: Activity
SF-268 [13] = test: Growth inhibition of human SF268 cells assessed as cell growth at 100 uM after 48 hrs by SRB assay; details: SF-268, 48 h, read-out: Activity
ACHN = test: Growth inhibition of human ACHN cells assessed as cell growth at 1 mM after 48 hrs by SRB assay; details: read-out: Activity
RXF 393 = test: Growth inhibition of human RXF393 cells after 48 hrs by […] growth inhibition assay; details: RXF 393, 48 h
NCI-H322M [14] = test: Growth inhibition of human NCI-H322M cells after 48 hrs by […] growth inhibition assay
DU-145 = test: Growth inhibition of human DU145 cells assessed as cell growth at 100 uM after 48 hrs by SRB assay; details: DU-145, 48 h, read-out: Activity
HCT-15 [15] = test: Growth inhibition of human HCT15 cells after 48 hrs by […] growth inhibition assay; details: HCT-15, 48 h
OVCAR-3 = test: Growth inhibition of human OVCAR3 cells assessed as cell growth at 0.1 uM after 48 hrs by SRB assay; details: OVCAR-3, 48 h, read-out: Activity
NCI/ADR-RES = test: Growth inhibition of human NCI/ADR-RES cells assessed as cell growth at 100 uM after 48 hrs by SRB assay; details: read-out: Activity
CCRF-CEM = test: Growth inhibition of human CCRF-CEM cells assessed as cell growth at 1 mM after 48 hrs by SRB assay; details: read-out: Activity
[16] = read-out: LC50 (the source's name)
[17] = read-out: pLC50 (the source's name) (converted)

SMILES: CNC(=O)NC[C@H]1O[C@@H](n2cnc3c(NC(=O)Nc4ccccc4)ncnc32)[C@H](O[Si](C)(C)C(C)(C)C)[C@@H]1O[Si](C)(C)C(C)(C)C
- growth at 100 µM (UO-31 [1]): -2%
- growth at 100 µM (BT-549): -10%
- growth at 10 µM (NCI-H23): 105%
- growth at 1 µM (IGROV-1): 99%
- growth at 10 µM (MDA-MB-435 [2]): 97%
- growth at 0.1 µM (A498): 92%
- growth at 0.1 µM (SK-OV-3 [3]): 108%
- growth at 100 µM (OVCAR-8): 13%
- growth at 100 µM (SF-539): 7%
- growth at 1 µM (NCI-H322M [4]): 106%
- GI50 (SF-268 [5]; read-out: GI50): 3.58 µM
- CC50 (SF-268 [5]; [16]): > 100 µM
- TGI (SF-268 [5]; read-out: TGI): 14 µM
- GI50 (SF-268 [5]; read-out: pGI50 (converted)): 3.55 µM
- CC50 (SF-268 [5]; [17]): > 100 µM
- TGI (SF-268 [5]; read-out: pTGI (converted)): 14.1 µM
- growth at 1000 µM (OVCAR-5): -43%
- GI50 (HCC 2998; read-out: GI50): 2.02 µM
- CC50 (HCC 2998; [16]): 6.99 µM
- TGI (HCC 2998; read-out: TGI): 3.75 µM
- GI50 (HCC 2998; read-out: pGI50 (converted)): 2 µM
- CC50 (HCC 2998; [17]): 6.92 µM
- TGI (HCC 2998; read-out: pTGI (converted)): 3.72 µM
- growth at 0.1 µM (MDA-MB-435 [6]): 102%
- growth at 10 µM (OVCAR-4): 100%
- GI50 (UACC-62 [7]; read-out: GI50): 3.98 µM
- CC50 (UACC-62 [7]; [16]): > 100 µM
- TGI (UACC-62 [7]; read-out: TGI): 23.6 µM
- GI50 (UACC-62 [7]; read-out: pGI50 (converted)): 3.98 µM
- CC50 (UACC-62 [7]; [17]): > 100 µM
- TGI (UACC-62 [7]; read-out: pTGI (converted)): 23.4 µM
- growth at 10 µM (UO-31 [8]): 84%
- growth at 10 µM (SK-OV-3 [9]): 107%
- growth at 10 µM (SK-MEL-2): 105%
- growth at 1 µM (UACC-257): 100%
- growth at 100 µM (HCT-15 [10]): 11%
- growth at 10 µM (NCI-H226): 105%
- growth at 100 µM (MDA-MB-435 [11]): 9%
- growth at 100 µM (UACC-62 [12]): 23%
- growth at 100 µM (SF-268 [13]): 8%
- growth at 1000 µM (ACHN): 2%
- GI50 (RXF 393; read-out: GI50): 2.14 µM
- CC50 (RXF 393; [16]): 7.5 µM
- TGI (RXF 393; read-out: TGI): 4.01 µM
- GI50 (RXF 393; read-out: pGI50 (converted)): 2.14 µM
- CC50 (RXF 393; [17]): 7.41 µM
- TGI (RXF 393; read-out: pTGI (converted)): 3.98 µM
- GI50 (NCI-H322M [14]; read-out: GI50): 6.86 µM
- CC50 (NCI-H322M [14]; [16]): > 100 µM
- TGI (NCI-H322M [14]; read-out: TGI): > 100 µM
- GI50 (NCI-H322M [14]; read-out: pGI50 (converted)): 6.92 µM
- CC50 (NCI-H322M [14]; [17]): > 100 µM
- TGI (NCI-H322M [14]; read-out: pTGI): > 100 µM
- growth at 100 µM (DU-145): -35%
- GI50 (HCT-15 [15]; read-out: GI50): 3.62 µM
- CC50 (HCT-15 [15]; [16]): > 100 µM
- TGI (HCT-15 [15]; read-out: TGI): > 100 µM
- GI50 (HCT-15 [15]; read-out: pGI50 (converted)): 3.63 µM
- CC50 (HCT-15 [15]; [17]): > 100 µM
- TGI (HCT-15 [15]; read-out: pTGI): > 100 µM
- growth at 0.1 µM (OVCAR-3): 111%
- growth at 100 µM (NCI/ADR-RES): 10%
- growth at 1000 µM (CCRF-CEM): 4%
